The record followed here is US9884821B2, “N1-cyclic amine-N5-substituted biguanide derivatives, methods of preparing the same and pharmaceutical composition comprising the same” (IMMUNOMET THERAPEUTICS INC., priority 2013, dated 2018).

In general, GI50 refers to the concentration at which growth is held to half of that of the control. Low values mean more potent growth inhibition, high ones less potent growth inhibition. A word on the inhibition: it is the change of the read-out against control, counted positive when it falls.

Assay [1] has as its system AMPK. Nature of the assay: AMPK activation effect (AMPK [pT172] ELISA) in MCF7 cells. The class given is cell-based, human. The settings on record: 24 hours; for AMPK activation effect (%) 10 μM / AMPK activation effect (%) 50 μM / AMPK activation effect (%) 5 μM: AMPKα Thr172 phosphorylation relative to untreated cells; for AC150: concentration at which AMPK activation reached 150%. The method, boiled down: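 MCF7 cells in DMEM/10% FBS were treated 24 h with compounds at 5, 10 and 50 uM. Lysates (20 μg protein) were assayed by ELISA for AMPKα Thr172 phosphorylation as the activation read-out.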
For orientation: An ELISA detects its analyte on a solid surface through an enzyme-linked reagent.

For assay [2], the system named is HCT116 cells. Put plainly: Effect of inhibiting cancer cell proliferation (MTT) in HCT116 cells. The class given is cell-based, human. The following applies: for inhibition at 100 µM: read-out: Cell growth inhibition (%) at 100 μM; for inhibition at 25 µM: read-out: Cell growth inhibition (%) at 25 μM. The method, boiled down:
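HCT116 colorectal cells (about 5,000 per well, DMEM with 10% FBS) treated with 100, 25, 6.25, 1.56 or 0.39 μM compound for 48 h. MTT added for 3 h, formazan read at 560 nm; GIC50 taken from viability relative to untreated cells.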

“And” between values parts separate entries of the source, which are not always exact repeats. Identical values can stand only once.

Consider `Cl.N=C(NC(=N)N1CC=CC1)Nc1ccccc1` [Example 44, N1-1,2-dihydropyrrole-N5-phenyl biguanide hydrochloride], for which, in assay [1], the “AMPK activation effect (%) 10 μM” value amounted to 289%, the “AMPK activation effect (%) 50 μM” value is given as 577% and the AC150 amounted to 1.7 µM. In addition, in assay [2] (Homo sapiens, HCT-116, 48 h), the GI50 is more than 100 µM and the inhibition at 100 µM is 27.8%.
For `CC1CCCCN1C(=N)NC(=N)Nc1ccc(F)c(C(F)(F)F)c1.Cl` (stereo not shown) [Example 78, N1-(2-methyl)piperidine-N5-(4-fluoro, 3-trifluoromethyl)phenyl biguanide hydrochloride], in assay [1], the “AMPK activation effect (%) 5 μM” value stood at 425%, the “AMPK activation effect (%) 10 μM” value is reported as 565% and the AC150 came out at 0.5 µM. Further, in assay [2] (Homo sapiens, HCT-116, 48 h), the concentration for 50% growth inhibition (GI50) amounted to 7 µM and the inhibition at 25 µM was determined as 100%.
For `CC1CCCN(C(=N)NC(=N)Nc2ccc(Cl)c(C(F)(F)F)c2)C1.Cl` (stereo not shown) [Example 69, N1-(3-methyl)piperidine-N5-(4-chloro, 3-trifluoromethyl)phenyl biguanide hydrochloride] the same measures were 307%, 650%, 1.2 µM, 1.9 µM and 100%.
For `CC1CCCN(C(=N)NC(=N)Nc2ccc(OC(F)(F)F)cc2)C1.Cl` (stereo not shown) [Example 82, N1-(3-methyl)piperidine-N5-(4-trifluoromethoxy)phenyl biguanide hydrochloride] the same measures were 401%, 474%, 0.5 µM, 7 µM and 100%.
`CCCCNC(=N)NC(=N)N1CC=CCC1.Cl` [Example 59, N1-1,2,3,6-tetrahydropyridine-N5-butyl biguanide hydrochloride]: in assay [1], the “AMPK activation effect (%) 10 μM” value amounted to 104%, the “AMPK activation effect (%) 50 μM” value is 283% and the AC150 came out at 16.6 µM. For the same compound, in assay [2] (Homo sapiens, HCT-116, 48 h), the GI50 was determined as 141 µM and the inhibition at 100 µM was 44.5%.
For the compound `CC1CCCN(C(=N)NC(=N)NCc2ccc(OC(F)(F)F)cc2)C1.Cl` (stereo not shown) [Example 84, N1-(3-methyl)piperidine-N5-(4-trifluoromethoxy)benzyl biguanide hydrochloride], in assay [1], the “AMPK activation effect (%) 5 μM” value is reported as 317%, the “AMPK activation effect (%) 10 μM” value is on record as 555% and the AC150 was 1.1 µM. Moreover, in assay [2] (Homo sapiens, HCT-116, 48 h), halving of growth (GI50) required 10.4 µM and the inhibition at 25 µM is 97%.
For `CC1CCCCN1C(=N)NC(=N)Nc1ccc(Cl)c(C(F)(F)F)c1.Cl` (stereo not shown) [Example 80, N1-(2-methyl)piperidine-N5-(4-chloro, 3-trifluoromethyl)phenyl biguanide hydrochloride], in that order: 334%, 590%, 1.1 µM, 6.8 µM and 99.7%.
Regarding `CCCNC(=N)NC(=N)N1CC=CCC1.Cl` [Example 60, N1-1,2,3,6-tetrahydropyridine-N5-propyl biguanide hydrochloride], in assay [1], the “AMPK activation effect (%) 10 μM” value is recorded as 108%, the “AMPK activation effect (%) 50 μM” value is recorded as 338% and the AC150 came to 12.4 µM. Moreover, in assay [2] (Homo sapiens, HCT-116, 48 h), the GI50 is 99.8 µM and the inhibition at 100 µM stood at 50.1%.
For `Cl.N=C(NC(=N)N1CC=CC1)Nc1cccc(C(F)(F)F)c1` [Example 6, N1-1,2-dihydropyrrole-N5-(3-trifluoromethyl)phenyl biguanide hydrochloride] the same measures were 124%, 136%, more than 50 µM, 12.9 µM and 99.6%.
For `Cl.N=C(NCc1cccc(OC(F)(F)F)c1)NC(=N)N1CC=CC1` [Example 14, N1-1,2-dihydropyrrole-N5-(3-trifluoromethoxy)benzyl biguanide hydrochloride], in that order: 151%, 507%, 8.4 µM, 17.5 µM and 98.8%.
As for `CN(C)C(=N)N=C(N)N` [Metformin, reference compound], in assay [1], the “AMPK activation effect (%) 50 μM” value was 130% and 130 (at 50 μM) %. Also, the “Cell growth inhibition (%) at 100 μM” value in assay [2] (48 hours) is recorded as 6.5 (at 100 μM ) %. Moreover, in assay [2] (Homo sapiens, HCT-116, 48 h), the concentration for 50% growth inhibition (GI50) amounted to 2170 µM and the inhibition at 100 µM was found to be 6.5%.
Regarding `Cl.N=C(NC(=N)N1CC=CCC1)Nc1ccc(OC(F)(F)F)cc1` [Example 28, N1-1,2,3,6-tetrahydropyridine-N5-(4-trifluoromethoxy)phenyl biguanide hydrochloride], in assay [1], the “AMPK activation effect (%) 10 μM” value is reported as 732% and the AC150 worked out at 0.15 µM. For the same compound, in assay [2] (Homo sapiens, HCT-116, 48 h), growth was halved (GI50) at 8.4 µM and the inhibition at 100 µM was 100%.
As to `Cl.N=C(N)NC(=N)N1CC=CCC1` [Example 61, N1-1,2,3,6-tetrahydropyridine biguanide hydrochloride], in assay [1], the “AMPK activation effect (%) 10 μM” value is on record as 123%, the “AMPK activation effect (%) 50 μM” value stood at 132% and the AC150 was more than 50 µM. Besides, in assay [2] (Homo sapiens, HCT-116, 48 h), the GI50 was more than 100 µM and the inhibition at 100 µM was found to be 10.5%.
For “N1-1,2-dihydropyrrole-N5-(4-methyl)phenyl biguanide hydrochloride [Example 50]”, in assay [1], the “AMPK activation effect (%) 10 μM” value is reported as 317%, the “AMPK activation effect (%) 50 μM” value was determined as 440% and the AC150 amounted to 1.4 µM. In addition, in assay [2] (48 hours), the “Cell growth inhibition (%) at 100 μM” value came out at 46.0% and the 50% growth inhibitory concentration (GI50) amounted to 117 µM.
For the compound `CC1CCCN(C(=N)NC(=N)Nc2cccc(C(F)(F)F)c2)C1.Cl` (stereo not shown) [Example 88, N1-(3-methyl)piperidine-N5-(3-trifluoromethyl)phenyl biguanide hydrochloride], in assay [1], the “AMPK activation effect (%) 5 μM” value is recorded as 327%, the “AMPK activation effect (%) 10 μM” value was determined as 399% and the AC150 amounted to 0.7 µM. Further, in assay [2] (Homo sapiens, HCT-116, 48 h), growth was halved (GI50) at 6.6 µM and the inhibition at 25 µM stood at 100%.
